Columns and labels:
[1] = test system: HCV replicon in human hepatoma Huh-7 cell line; assay: Anti-HCV replicon assay, EC50 (luciferase luminescence); format: cell-based; conditions: Hepatitis C virus, Huh-7, 72 h
Method in brief: (§1)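 Cytotoxicity (CC50) read by CellTiter-Glo luminescence after 10 min, and antiviral EC50 by luciferase signal after 30 min lysis with substrate, both at room temperature. Preceding step: 3-day exposure of 6000 Huh-7 HCV replicon cells per well to compound dilution series at 37° C, 5% CO2, in 0.5% DMSO.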

[2] = CC50 assay (CellTiter-Glo) in Huh-7 HCV replicon cells; format: cell-based; conditions: human
Method in brief: as §1

Row | SMILES | EC50 [1] [µM] | CC50 at 3 days ([2]; Table 2, 3 days incubation) [µM] | CC50 at 3 days ([2]; Table 1, 3 days incubation) [µM]
1 | NS(=O)(=O)c1cc(F)cc(CNc2nc(NC3(C(F)(F)F)CC3)c3nc(-c4ccc(F)cc4)ccc3n2)c1 [Example 115, 3-fluoro-5-((6-(4-fluorophenyl)-4-(1-(trifluoromethyl)cyclopropyl-amino)pyrido[3,2-d]pyrimidin-2-ylamino)methyl)benzene-sulfonamide] | < 0.1 | 1 to 10 | 
2 | C[C@H](Cn1cncn1)Nc1nc(NCC(F)(F)F)c2nc(-c3ccc(OC4CC4)nc3)ccc2n1 [Example 258, N^2-((R)-1-(1H-1,2,4-triazol-1-yl)propan-2-yl)-6-(6-cyclo-propoxypyridin-3-yl)-N^4-(2,2,2-trifluoroethyl)pyrido[3,2-d] pyrimidine-2,4-diamine] | < 0.1 | > 10 | 
3 | CCOc1ccc(-c2ccc3nc(N[C@H](C)c4ccc(S(N)(=O)=O)cc4)nc(NCC(F)(F)F)c3n2)cc1S(N)(=O)=O [Example 261, 4-((R)-1-(6-(4-ethoxy-3-(aminosulfonyl)phenyl)-4-(2,2,2-trifluoroethylamino)pyrido[3,2-d]pyrimidin-2-ylamino)ethyl)benzene-sulfonamide] | < 0.1 | > 10 | 
4 | NS(=O)(=O)c1ccc(CNc2nc(NCC(F)(F)F)c3nc(-c4ccc(F)cc4)ccc3n2)cc1F [Example 3, 2-Fluoro-4-{[6-(4-fluoro-phenyl)-4-(2,2,2-trifluoro-ethylamino)-pyrido[3,2-d]pyrimidin-2-ylamino]-methyl}-benzenesulfonamide] | 0.25 to 2 |  | > 25
5 | CS(=O)(=O)Nc1cc(F)cc(CNc2nc(NC3(C(F)(F)F)CC3)c3nc(-c4ccc(F)cc4)ccc3n2)c1 [Example 107, N-(3-fluoro-5-((6-(4-fluorophenyl)-4-(1-(trifluoromethyl)cyclopropyl-amino)pyrido[3,2-d]pyrimidin-2-ylamino)methyl)phenyl)methane-sulfonamide] | 0.25 to 2 | > 10 | 
6 | CCOc1ccc(-c2ccc3nc(NCc4cc(Cl)cc(S(N)(=O)=O)c4)nc(NCC(F)(F)F)c3n2)cn1 [Example 233, 3-chloro-5-((6-(6-ethoxypyridin-3-yl)-4-(2,2,2-trifluoroethylamino)pyrido [3,2-d]pyrimidin-2-ylamino)methyl)benzenesulfonamide] | < 0.1 | 1 to 10 | 
7 | CC[C@@H](Nc1nc(NCC(F)(F)F)c2nc(-c3ccc(F)cc3)ccc2n1)c1ccc(S(N)(=O)=O)cc1 [Example 12, (R)-4-{1-[6-(4-Fluoro-phenyl)-4-(2,2,2-trifluoro-ethylamino)-pyrido[3,2-d]pyrimidin-2-ylamino]-propyl}-benzenesulfonamide] | 0.25 to 2 |  | 10 to 25
8 | NS(=O)(=O)c1cc(Cl)cc(CNc2nc(NC3(C(F)(F)F)CC3)c3nc(-c4ccc(NC(=O)C5(C(F)(F)F)CC5)cc4)ccc3n2)c1 [Example 48, 3-chloro-5-((6-(4-(1-(trifluoromethyl)cyclopropyl-carboxamido)phenyl)-4-(1-(trifluoromethyl)cyclopropyl-amino)pyrido[3,2-d]pyrimidin-2-ylamino)methyl)benzene-sulfonamide] | < 0.1 | 1 to 10 | 
9 | CS(=O)(=O)c1cccc(-c2ccc3nc(NC4CC4)nc(NCC(F)(F)F)c3n2)c1 [Example 138, N^2-cyclopropyl-6-(3-(methylsulfonyl)phenyl)-N^4-(2,2,2-trifluoroethyl)pyrido [3,2-d]pyrimidine-2,4-diamine] | 0.1 to 0.25 | > 10 | 
10 | CS(=O)(=O)c1cccc(-c2ccc3nc(NCc4ccc(-n5cncn5)cc4)nc(O[C@@H]4C[C@@H]5C[C@@H]5C4)c3n2)c1 [Example 194, N-(4-(1H-1,2,4-triazol-1-yl)benzyl)-4-((1S,3r,5R)-bicyclo[3.1.0]hexan-3-yloxy)-6-(3-(methylsulfonyl)phenyl) pyrido[3,2-d]pyrimidin-2-amine] | < 0.1 | 1 to 10 | 
11 | Fc1ccc(-c2ccc3nc(NCc4cc(F)cc(-n5cncn5)c4)nc(NC4(C(F)(F)F)CC4)c3n2)cc1 [Example 128, N^2-(3-fluoro-5-(1H-1,2,4-triazol-1-yl)benzyl)-6-(4-fluorophenyl)-N^4-(1-(trifluoromethyl)cyclopropyl) pyrido[3,2-d]pyrimidine-2,4-diamine] | 0.25 to 2 | > 10 | 
12 | COc1ccc(-c2ccc3nc(NCCS(N)(=O)=O)nc(NCC(F)(F)F)c3n2)cc1S(C)(=O)=O [Example 172, 2-(6-(4-methoxy-3-(methylsulfonyl)phenyl)-4-(2,2,2-trifluoroethylamino)pyrido[3,2-d]pyrimidin-2-ylamino)ethanesulfonamide] | 0.1 to 0.25 | > 10 | 
13 | COCCNc1nc(NCC(F)(F)F)c2nc(-c3ccc(OC)c(S(C)(=O)=O)c3)ccc2n1 [Example 153, 6-(4-methoxy-3-(methylsulfonyl)phenyl)-N^2-(2-methoxyethyl)-N^4-(2,2,2-trifluoroethyl)pyrido[3,2-d] pyrimidine-2,4-diamine] | < 0.1 | > 10 | 
14 | COc1ccc(-c2ccc3nc(NC(C)C#CC4CC4)nc(NCC(F)(F)F)c3n2)cc1S(N)(=O)=O (stereo not shown) [Example 239, 5-(2-(4-cyclopropylbut-3-yn-2-ylamino)-4-(2,2,2-trifluoroethylamino)pyrido [3,2-d]pyrimidin-6-yl)-2-methoxybenzenesulfonamide] | < 0.1 | 1 to 10 | 
15 | [2H]C([2H])([2H])C([2H])([2H])Oc1ccc(-c2ccc3nc(N[C@H](C)c4ccc(-n5cncn5)cc4)nc(NCC(F)(F)F)c3n2)cn1 [Example 255, N^2-((R)-1-(4-(1H-1,2,4-triazol-1-yl)phenyl)ethyl)-6-(6-pentadeuteroethoxypyridin-3-yl)-N^4-(2,2,2-trifluoroethyl) pyrido[3,2-d]pyrimidine-2,4-diamine] | < 0.1 | 1 to 10 | 
16 | C[C@@H](Nc1nc(OC2CCC2)c2nc(-c3cccc(S(C)(=O)=O)c3)ccc2n1)c1ccc(S(N)(=O)=O)cc1 [Example 200, 4-((R)-1-(4-cyclobutoxy-6-(3-(methylsulfonyl)phenyl)pyrido [3,2-d]pyrimidin-2-ylamino)ethyl)benzenesulfonamide] | 0.1 to 0.25 | > 10 | 
17 | COc1ccc(-c2ccc3nc(NCc4ccc(S(N)(=O)=O)c(Cl)c4)nc(NCC(F)(F)F)c3n2)cc1S(C)(=O)=O [Example 147, 2-chloro-4-((6-(4-methoxy-3-(methylsulfonyl)phenyl)-4-(2,2,2-trifluoroethylamino)pyrido[3,2-d]pyrimidin-2-ylamino)methyl)benzene-sulfonamide] | < 0.1 | > 10 | 
18 | CS(=O)(=O)c1cccc(CNc2nc(NC3(C(F)(F)F)CC3)c3nc(-c4ccc(F)cc4)ccc3n2)c1 [Example 86, N^2-(3-(methylsulfonyl)benzyl)-6-(4-fluorophenyl)-N^4-(1-(trifluoromethyl)cyclopropyl) pyrido[3,2-d]pyrimidine-2,4-diamine] | < 0.1 | > 10 | 
19 | CS(=O)(=O)c1cc(-c2ccc3nc(NCc4ccc(-n5cncn5)cc4)nc(OC4CCC4)c3n2)ccc1OC(F)F [Example 204, N-(4-(1H-1,2,4-triazol-1-yl)benzyl)-4-cyclobutoxy-6-(4-(difluoromethoxy)-3-(methylsulfonyl)phenyl)pyrido [3,2-d]pyrimidin-2-amine] | < 0.1 | 1 to 10 | 
20 | C[C@@H](Nc1nc(OC2(C)CC2)c2nc(C#CC3CC3)ccc2n1)c1ccc(S(N)(=O)=O)cc1 [Example 296, (R)-4-(1-(6-(2-cyclopropyl-ethynyl)-4-(1-methylcyclo-propoxy)pyrido[3,2-d]pyrimidin-2-ylamino)ethyl)benzene-sulfonamide] | < 0.1 | > 10 | 
21 | CS(=O)(=O)c1cccc(-c2ccc3nc(NCc4ccc(-n5cncn5)cc4)nc(NCC(F)(F)F)c3n2)c1 [Example 163, N^2-(4-(1H-1,2,4-triazol-1-yl)benzyl)-6-(3-(methylsulfonyl)phenyl)-N^4-(2,2,2-trifluoroethyl) pyrido[3,2-d]pyrimidine-2,4-diamine] | < 0.1 | > 10 | 
22 | C[C@@H](Nc1nc(NCC(F)(F)F)c2nc(C#Cc3cncs3)ccc2n1)c1ccc(S(N)(=O)=O)cc1 [Example 297, (R)-4-(1-(6-(2-(thiazol-5-yl)ethynyl)-4-(2,2,2-trifluoro-ethylamino)pyrido[3,2-d]pyrimidin-2-ylamino)ethyl) benzenesulfonamide] | 0.25 to 2 | > 10 | 
23 | COc1ccc(-c2ccc3nc(NCc4cc(C(F)(F)F)cc(S(N)(=O)=O)c4)nc(NCC(F)(F)F)c3n2)cc1S(C)(=O)=O [Example 141, 3-((6-(4-methoxy-3-(methylsulfonyl)phenyl)-4-(2,2,2-trifluoroethylamino)pyrido[3,2-d]pyrimidin-2-ylamino)methyl)-5-(trifluoromethyl)benzene-sulfonamide] | < 0.1 | > 10 | 
24 | CCOc1ccc(-c2ccc3nc(NCc4ccc(-n5cncn5)cc4)nc(OC4(C)CC4)c3n2)cc1S(N)(=O)=O [Example 263, 5-(2-(4-(1H-1,2,4-triazol-1-yl)benzylamino)-4-(1-methylcyclopropoxy)pyrido [3,2-d)pyrimidin-6-yl)-2-ethoxybenzenesulfonamide] | < 0.1 | 1 to 10 | 
25 | NS(=O)(=O)c1cc(Cl)cc(CNc2nc(NC3(C(F)(F)F)CC3)c3nc(-c4ccc(F)cc4)ccc3n2)c1 [Example 27, 3-chloro-5-{[6-(4-fluorophenyl)-4-(1-trifluoromethyl-cyclopropylamino)-pyrido[3,2-d]pyrimidin-2-ylamino]-methyl}-benzenesulfonamide] | 0.1 to 0.25 | > 10 | 
26 | [2H]C([2H])([2H])C([2H])([2H])Oc1ccc(-c2ccc3nc(NCc4ccc(-n5cncn5)cc4)nc(NCC(F)(F)F)c3n2)cn1 [Example 256, N^2-(4-(1H-1,2,4-triazol-1-yl)benzyl)-6-(6-pentadeutero-ethoxypyridin-3-yl)-N^4-(2,2,2-trifluoroethyl)pyrido[3,2-d] pyrimidine-2,4-diamine] | < 0.1 | > 10 | 
